Source: patent US6207399A, “Methods of determining endogenous thrombin potential (ETP) and thrombin substrates for use in said methods” (Hemker; Hendrik Coenraad, priority 1995, dated 2001)

Experiments:
[1] = tested on: thrombin formation in plasma; experiment: Continuous registration of the thrombin generation curve (continuous assay of ETP); type: biochemical, human; conditions: 25 mM hydroxylamine
Protocol: Continuous registration of the thrombin generation curve: Extrinsic pathway: In a polystyrene microcuvette were added: 400 μL defibrinated plasma, 20 μL of a 45 μM phospholipid solution (final concentration: 1.5 μM), 140 μL of buffer A which contains the substrate at the desired final concentration (100-2000 μM). After 4 min of incubation at 37° C., 20 μL tissue factor (undiluted) was added. Thrombin generation was started by adding 20 μL of a 0.5 M CaCl2 solution (final concentration: 16.67 mM); during the measurement the temperature was kept at 37° C. The optical density was monitored at 405 nm. From the obtained optical density curve, the first derivative was calculated. […] The optical density was measured at 37° C. at 405 nm during 20 min.
Continuous registration of the thrombin generation curve: Extrinsic pathway: In a polystyrene microcuvette were added: 400 μL defibrinated plasma, 20 μL of a 45 μM phospholipid solution (final concentration: 1.5 μM) and 140 μL of buffer A which contains the substrate at the desired final concentration (500 μM). […] The optical density was monitored at 405 nm. From the obtained optical density curve, the first derivative was calculated giving the enzyme concentration during the measurement. […] The optical density was measured at 37° C. at 405 nm during 20 min. […] The optical density was measured at 37° C. at 405 nm during 25 min.

[2] = tested on: thrombin generation in tissue factor triggered plasma; experiment: Manual determination of thrombin generation in plasma (subsampling method) and calculated prothrombinase activity; type: biochemical, human
Protocol: Manual determination of thrombin generation in plasma: Extrinsic pathway: To 480 μL defibrinated plasma were added: 172 μL buffer A which contains the substrate at concentrations between 0 to 2000 μM and 20 μL of a 54 μM phospholipid solution (final concentration: 1.5 μM). After incubation of 4 min at 37° C., 24 μL tissue factor (undiluted) was added. Thrombin formation started at zero time by adding 24 μL of a 0.5 M CaCl2 solution (final concentration: 16.67 mM). At regular time intervals of 12 s samples of 10 μL were subsampled as described above. From the amidolytic activities thus obtained, the thrombin generation curve can be drawn. […] Intrinsic pathway: To 480 μL defibrinated plasma were added: 168 μL buffer A which contains the substrate at concentrations between 0 to 1000 μM and 48 μL Actin FS (undiluted). This mixture was intensively mixed and incubated for 4 min at 37° C. Thrombin generation was started at zero time by adding 24 μL of a 0.5 M CaCl2 solution (final concentration: 16.67 mM).
Influence of the substrate on the prothrombinase-complex: With the obtained decay constants and from the curves obtained by the subsampling method we calculated the course of prothrombin conversion and the course of prothrombinase concentration.
Manual determination of thrombin generation in plasma: Extrinsic pathway: To 480 μL defibrinated plasma were added: 172 μL buffer A which contained the substrate at concentrations between 0 to 2000 μM and 20 μL of a 54 μM phospholipid solution (final concentration: 1.5 μM). After incubation for 4 min at 37° C., 24 μL tissue factor (undiluted) was added. Thrombin formation started at zero time by adding 24 μL of a 0.5 M CaCl2 solution (final concentration: 16.67 mM). At regular time intervals of 12 s samples of 10 μL were subsampled as described above. From the amidolytic activities thus obtained, the thrombin generation curve can be drawn.
Influence of the substrate on the prothrombinase-compzex: With the obtained decay constants and from the curves obtained by the subsampling method we calculated the course of prothrombin conversion and the course of prothrombinase concentration.

[3] = target: T1, euglobulin thrombin (Homo sapiens, UniProt P00734); experiment: Decay constants of thrombin in plasma; type: biochemical; conditions: [S] 25 mM in plasma
T1 construct: The euglobulin thrombin fraction was prepared from defibrinated human plasma; from tissue; host or cells: defibrinated human plasma (euglobulin fraction, acid precipitation, method of Josso and Prou-Wartelle)
Protocol: (§1) To this mixture was added 10 μL of a thrombin preparation to achieve a final concentration of 100 nM. At regular time intervals (5-10 s) 10 μL samples were subsampled into 490 μL buffer B which contained 200 μM of S2238 to determine thrombin activity. After 2 min the reaction was stopped by adding 300 μL 1M citric acid. The moment of sampling and stopping were recorded on a personal computer with pushbutton-equipped pipettes. The optical density was then read at 405 nm and the obtained amidolytic activities were used to calculate the decay constants. The obtained decay constant is the sum of the decay constants of the reaction of thrombin with antithrombin III (k1) and α2 -macroglobulin (k2).
as §1, with “Decay constants of thrombin in plasma: To 120 μL defibrinated plasma was added: 50 μL of buffer A which contained the substances to be tested. To” for “To”, “was” for “was then”

NO [hydroxylamine, reference compound]
residual amidolytic activity of the α2 M-thrombin complex [1]: substantially reduced | k2,M : k2 determined by the subsampling method ([2]; [S] 25 mM in plasma): 0.057 min⁻¹ | influence on the prothrombinase complex / coagulation cascade ([2]; calculated from decay constants and manual thrombin generation curves): did not influence the coagulation cascade | AA: amidolytic activity (maximum) ([2]; hydroxylamine 25 mM): 383.88 mOD/min | PT: prothrombinase concentration (maximum) ([2]; hydroxylamine 25 mM): 1227 mOD/min | T: thrombin concentration (maximum) ([2]; hydroxylamine 25 mM): 378.03 mOD/min | t: time point at which maximum of amidolytic activity is achieved ([2]; hydroxylamine 25 mM): 72 s | t: time point at which maximum of prothrombinase concentration is achieved ([2]; hydroxylamine 25 mM): 36 s | t: time point at which maximum of thrombin concentration is achieved ([2]; hydroxylamine 25 mM): 72 s | (k1,corr) = k1,corr /1.856 [3]: 0.585 min⁻¹ | k1,corr : k1 after correcting for k2,M and 0.170 [3]: 1.085 min⁻¹ | k1 : AT-III dependent decay of thrombin [3]: 1.253 min⁻¹ | k2 : α2 M dependent decay of thrombin [3]: 0.059 min⁻¹ | koverall [3]: 1.312 min⁻¹ | t1/2 [3]: 31.70 s
